Test results published in publication PMC6155162, “Identification of mesothelioma-specific sialylated epitope recognized with monoclonal antibody SKM9-2 in a mucin-like membrane protein HEG1” (Scientific Reports, 2018).
Entries after “also recorded” stand apart in the source; their conditions may differ.

B1: recombinant HEG1: full-length recombinant HEG1 (1-1481) expressed in HEK293T (protein, UniProt Q9ULI3 1-1381, looked up)
chain: MASPRASRWPPPLLLLLLPLLLLPPAAPGTRDPPPSPARRALSLAPLAGAGLELQLERRPEREPPPTPPRERRGPATPGPSYRAPEPGAATQRGPSGRAPRGGSADAAWKHWPESNTEAHVENITFYQNQEDFSTVSSKEGVMVQTSGKSHAASDAPENLTLLAETADARGRSGSSSRTNFTILPVGYSLEIATALTSQSGNLASESLHLPSSSSEFDERIAAFQTKSGTASEMGTERAMGLSEEWTVHSQEATTSAWSPSFLPALEMGELTTPSRKRNSSGPDLSWLHFYRTAASSPLLDLSSSSESTEKLNNSTGLQSSSVSQTKTMHVATVFTDGGPRTLRSLTVSLGPVSKTEGFPKDSRIATTSSSVLLSPSAVESRRNSRVTGNPGDEEFIEPSTENEFGLTSLRWQNDSPTFGEHQLASSSEVQNGSPMSQTETVSRSVAPMRGGEITAHWLLTNSTTSADVTGSSASYPEGVNASVLTQFSDSTVQSGGSHTALGDRSYSESSSTSSSESLNSSAPRGERSIAGISYGQVRGTAIEQRTSSDHTDHTYLSSTFTKGERALLSITDNSSSSDIVESSTSYIKISNSSHSEYSSFFHAQTERSNISSYDGEYAQPSTESPVLHTSNLPSYTPTINMPNTSVVLDTDAEFVSDSSSSSSSSSSSSSSGPPLPLPSVSQSHHLFSSILPSTRASVHLLKSTSDASTPWSSSPSPLPVSLTTSTSAPLSVSQTTLPQSSSTPVLPRARETPVTSFQTSTMTSFMTMLHSSQTADLKSQSTPHQEKVITESKSPSLVSLPTESTKAVTTNSPLPPSLTESSTEQTLPATSTNLAQMSPTFTTTILKTSQPLMTTPGTLSSTASLVTGPIAVQTTAGKQLSLTHPEILVPQISTEGGISTERNRVIVDATTGLIPLTSVPTSAKEMTTKLGVTAEYSPASRSLGTSPSPQTTVVSTAEDLAPKSATFAVQSSTQSPTTVSSSASVNSCAVNPCLHNGECVADNTSRGYHCRCPPSWQGDDCSVDVNECLSNPCPSTAMCNNTQGSFICKCPVGYQLEKGICNLVRTFVTEFKLKRTFLNTTVEKHSDLQEVENEITKTLNMCFSALPSYIRSTVHASRESNAVVISLQTTFSLASNVTLFDLADRMQKCVNSCKSSAEVCQLLGSQRRIFRAGSLCKRKSPECDKDTSICTDLDGVALCQCKSGYFQFNKMDHSCRACEDGYRLENETCMSCPFGLGGLNCGNPYQLITVVIAAAGGGLLLILGIALIVTCCRKNKNDISKLIFKSGDFQMSPYAEYPKNPRSQEWGREAIEMHENGSTKNLLQMTDVYYSPTSVRNPELERNGLYPAYTGLPGSRHSCIFPGQYNPSFISDESRRRDYF
modifications: full-length FLAG tag
notes: full-length recombinant HEG1 (1-1481) expressed in HEK293T

What was measured:
SKM9-2 [1] = test: SPR analysis of binding between SKM9-2 and soluble His-tagged minimum epitope peptides (SKMepmin)
Protocol: Figure 5 SPR analysis of the binding kinetics between SKM9-2 and mutants of minimum epitope. A soluble His-tagged mutant of minimum epitope (SKMepmin) was secreted from transfected HEK293T and immobilized as a ligand on the Ni^2+-binding sensor chip NTA. The upper sensorgrams show the binding kinetics of analyte (5 µg/mL of SKM9-2) to SKMepmins. The control without any peptide is shown as “No peptide” and the negative control peptide cycle is shown as “Control peptide”. The glycan-digested SKMepmin3 that was treated with Neuraminidase A and O-Glycosidase was used as the negative control peptide. The dissociation constant in the lower bar graph was calculated using the manufacturer’s instructions. RU, response units; Signal sequence, the artificial signal sequence (MAPLLLLLLPLLLLPPAAP).
(§1) Figure 7 SPR analysis of bindings of lectin and SKM9-2 to glycosidase-treated SKMepmin3. Purified SKMepmin3 was incubated with α2-3 Neuraminidase S, Neuraminidase A, or Neuraminidase A + O-Glycosidase; and then was immobilized as a ligand on Ni^2+-binding sensor chip NTA. The analytes were used at a concentration of 5 µg/mL. (a) ABA, (b) Jacalin, (c) rACG, (d) SKM9-2. Glycosidase-digested sample was not tested in the experiment with rACG.
(§2) Cell lysate or SKMepmin3 was treated with α2-3 Neuraminidase S, α2-3, 6, 8, 9 Neuraminidase A, and O-Glycosidase (New England Biolabs Japan, Tokyo, Japan) in 50 mM sodium phosphate (pH 7.5) containing 1% Nonidet P-40, according to the manufacturer’s instructions. The cell lysate sample was resolved by 4–15% or 6% SDS-PAGE under reducing conditions and detected by western blotting using SKM9-2. The analysis of the SKMepmin3 sample was performed by SPR.
(§3) The binding of SKM9-2 or lectin to SKMepmin was measured by SPR analysis. SKMepmin was diluted with a running buffer (10 mM HEPES buffer (pH 8.1) containing 150 mM NaCl and 0.005% Tween-20), flowed on Ni^2+-binding sensor chip NTA (GE Healthcare), and affinity-bound through His-tag as a ligand on the sensor chip. Binding analysis of SKM9-2 was performed in a running buffer containing 50 µM EDTA. A non-treated flow cell was used as a reference cell. SKM9-2, anti-sialyl Lewis^X (CSLEX1, Becton, Dickinson and Company Japan, Tokyo, Japan), rACG (Wako Pure Chemical Industries), biotinylated ABA (J-Oil Mills, Inc., Tokyo, Japan), or biotinylated Jacalin (Vector Laboratories, Inc., Burlingame, CA, USA) (each 5 µg/mL) was injected as an analyte with the running buffer. As a regeneration buffer, 350 mM EDTA was used. The dissociation constant was calculated using the manufacturer’s instructions.

[2] = tested on: Agaricus bisporus agglutinin (ABA); test: SPR lectin binding analysis of glycosidase-treated SKMepmin3: ABA; conditions: ABA 5 µg/mL
Protocol: as §1, §2, §3

Jacalin = test: SPR lectin binding analysis of glycosidase-treated SKMepmin3: Jacalin
Protocol: as §1, §2, §3

[3] = tested on: recombinant Agrocybe cylindracea lectin (rACG); test: SPR lectin binding analysis of SKMepmin3: rACG; conditions: non-treated SKMepmin3, rACG 5 µg/mL
Protocol: as §1, §3

[4] = tested on: anti-sialyl Lewis^X (CSLEX1); test: SPR analysis of binding of anti-sialyl LewisX to SKMepmin3; conditions: purified SKMepmin3 on sensor chip NTA, analyte 5 µg/mL
Protocol: as §3
Supplementary Fig. S2. SPR analysis of binding of anti-sialyl LewisX to SKMepmin3.
Purified SKMepmin3 was immobilized as a ligand on Ni2+-binding sensor chip NTA. The analytes
were used at the concentration of 5 µg/mL.

SKM9-2 [5] = test: Deglycosylation analysis: western blotting using SKM9-2 of neuraminidase-treated cell lysates; format: binding; conditions: full-length HEG1, lysates of ACC-MESO4 (native) or HEG1-transfected HEK293T, 6% SDS-PAGE
Description: Figure 8 SKM9-2 epitope produced from mesothelioma cells. (a) Chromatogram of SKMepmin3 separation using anion exchange column. SKMepmin3 produced from HEK293T (blue line) or ACC-MESO4 (pink line) was affinity-purified using SKM9-2-immobilized resins and separated by Mini Q 4.6/50 PE. A major peak of SKMepmin3 purified from HEK293T contained two disialyl T antigens (Fig. 6). (b) Western blotting for epitope-fused GPI-anchor protein (7.6231) treated with neuraminidases. Cell lysate of 7.6231-transfected ACC-MESO1 (top panel), ACC-MESO4 (middle panel), or HEK293T (lower panel) was treated with α2-3 Neuraminidase S or Neuraminidase A, resolved by 4–15% SDS-PAGE, and analyzed by western blotting using SKM9-2. (c) Western blotting for full-length HEG1 treated with neuraminidases. Cell lysates of ACC-MESO4 (upper panel) and HEG1-transfected HEK293T (lower panel) were treated with α2-3 Neuraminidase S or Neuraminidase A and analyzed by 6% SDS-PAGE and western blotting using SKM9-2. (d) Schematic of SKM9-2 epitope. Full-length blots are presented in Supplementary Fig. S10.
Monolayer cells were solubilized with 20 mM Tris buffer (pH 8.0) containing 1% SDS, 1 mM phenylmethylsulfonyl fluoride, 125 mU/mL Benzonase Nuclease (Merck Millipore Co., Tokyo, Japan) (25 µL/cm^2 culture surface area). The lysate (10 µL/lane) was resolved by SDS-PAGE under reducing conditions using 6% polyacrylamide gels or 4–15% precast gels (Bio-Rad Laboratories Inc., Hercules, CA, USA). Then it was transferred to a polyvinylidene difluoride membrane (Immobilon-P; Merck Millipore Co.) by semi-dry blotting in a buffer containing 25 mM Tris, 192 mM glycine, 0.1% SDS, and 20% methanol. The membrane was blocked with 5% non-fat milk in 20 mM Tris-buffered saline (pH 7.2) containing 0.1% Tween 20 and reacted with 1 µg/mL of mAb SKM9-2 or anti-FLAG (Anti-DYKDDDDK tag mAb; 1E6, Wako Pure Chemical Industries, Osaka, Japan). After washing, it was treated with horseradish peroxidase-conjugated goat anti-mouse IgG (Jackson ImmunoResearch, West Grove, PA, USA), and developed with Amersham ECL select (GE Healthcare, Buckinghamshire, UK). Although glycan in non-fat milk often interferes the glycan-dependent binding of an antibody, the SKM9-2 binding was not affected by the blocking using non-fat milk, in comparison with 5% bovine serum albumin (Supplementary Fig. S6).
as §2

Molecule | Kd (SKM9-2 [1]; His-tagged SKMepmin secreted from transfected HEK293T immobilized on Ni2+-binding sensor chip NTA, analyte 5 µg/mL SKM9-2, running buffer 10 mM HEPES pH 8.1, 150 mM NaCl, 0.005% Tween-20, 50 µM EDTA, read-out: KD (M), dissociation constant) | persistent binding of SKM9-2 (SKM9-2 [1]; SKMepmin3 desialylated with Neuraminidase A, SKM9-2 5 µg/mL) | SKM9-2 binding (SKM9-2 [1]; SKMepmin3 treated with α2–3 Neuraminidase S, SKM9-2 5 µg/mL) | association rate between SKM9-2 and epitope peptide (in words) (SKM9-2 [1]; analyte 5 µg/mL SKM9-2, change caused by the substitution) | interaction between SKM9-2 and SKMepmin3 (SKM9-2 [1]; complete digest of glycan using O-Glycosidase (with Neuraminidase A), SKM9-2 5 µg/mL) | ABA binding ([2]; SKMepmin3 deglycosylated with O-Glycosidase and Neuraminidase A) | ABA binding ([2]; SKMepmin3 desialylated with Neuraminidase A) | ABA binding ([2]; non-treated SKMepmin3 as ligand) | Jacalin binding (Jacalin; SKMepmin3 desialylated with Neuraminidase A, Jacalin 5 µg/mL) | Jacalin binding (Jacalin; deglycosylated SKMepmin3 (Neuraminidase A + O-Glycosidase), Jacalin 5 µg/mL) | Jacalin binding (Jacalin; non-treated SKMepmin3, Jacalin 5 µg/mL) | rACG binding [3] | anti-sialyl Lewis^X antibody binding [4] | SKM9-2 binding (western blot) (SKM9-2 [5]; Neuraminidase A) | SKM9-2 binding (western blot) (SKM9-2 [5]; α2–3 Neuraminidase S)
MAPLLLLLLPLLLLPPAAPGGSKAPSLVSLPAGGDYKDDDDKHHHHHHHH [SKMepmin3, minimum glycosylation peptide 893-…-903 -FLAG-Hisx8 with two disialyl T at Ser893 and Ser900] | 2.82e-09 M | lost | weakened | increased | eliminated | lost | enhanced | bound | recognized | not | did not bind | interacted | did not bind; also recorded: not bound | – | –
B1 | – | – | – | – | – | – | – | – | – | – | – | – | – | lost | weakened
